Assay results taken from patent US20080051431A1, “Methods and compositions using immunomodulatory compounds in combination therapy” (priority 2006, published 2008).
“Also recorded” adds a separate entry of the source.

Tests used:
[1] = cited from earlier work; for relative stability among polymorphs: Form A: among anhydrous polymorphs, Form E: in aqueous solvent systems; for hygroscopicity: polymorphic form of 3-(4-amino-1-oxo-1,3 dihydro-isoindol-2-yl)-piperidene-2,6-dione; for conversion upon heating (desolvation experiments): Form E: about 125° C. for about five minutes, Form B: 175° C. for about five minutes; for interconversion in solvent systems or at higher relative humidity: interconversion studies
[2] = tested on: Namalwa cells (human Burkitt Lymphoma); test: Namalwa cell apoptosis (Propidium iodide staining, flow cytometry); assay type: cell-based; conditions: 3 days; for effect of combination with VPA on inducing apoptosis: FIGS. 4 and 6
Procedure: (§1) Namalwa were cultured in RPMI-1640 media (Invitrogen, Carlsbad) supplemented with 10% fetal bovine serum, penicillin (100 u/ml) and streptomycin (100 μg/ml). CD34^+ cells were expanded in serum free conditions in Iscove's DMEM (Invitrogen, Carlsbad, Calif.) supplemented with 20% serum substitute BIT (StemCell Techologies, Vancouver, BC) in the presence of SCF (100 ng/ml), Flt3-L (100 ng/ml) and IL-3 (20 ng/ml) (Biosource International, Camarillo, Calif.). Namalwa cells and CD34+ cells were cultured for 3 and 6 days, respectively. DMSO 0.1%, Comp. 1 or Comp. 2, valproic acid (VPA) or trichostatin A (TSA) at the concentration indicated were added during the 3 or 6 days of culture. BM-CD34+ cells were cultured in Iscove's MDM with BIT 95000 (StemCell technologies) in the presence of growth factors. During the first 6 days CD34^+ cells were expanded with SCF (100 ng/ml), Flt3-L (100 ng/ml), and IL-3 (20 ng/ml) and then differentiated toward the erythroid lineage by culture with SCF (50 ng/ml) and EPO (2U or 4 U/ml) for 6 days. To study the effect of immunomodulatory compounds, CD34^+ progenitor cells were differentiated for a period of 6 days in the presence or absence of Comp. 1, Comp. 2 or hydroxyurea (HU).
(§2) Namalwa and CD34^+ cells were plated at 4000 and 2000 cells per well, respectively into 96-well plate and treated with compound. After the time indicated, cells were counted and phenotypically analyzed by flow cytometry using the FACSarray. The percentage of apoptotic cells and CD34^+ cells were monitored using Propidium iodide staining (BD pharmingen, Chicago, Ill.) and the antibody anti-CD34 (PE-conjugated) (BD pharmingen), respectively, according to the manufacturer experimental procedure.

[3] = tested on: cord blood CD34+ cells; test: Expansion of cord blood-derived CD34+ cells (cell count and anti-CD34 flow cytometry); assay type: cell-based; conditions: for effects of combination with TSA on CD34+ expansion, CD34+ cell number / effects of combination with TSA on CD34+ expansion, percent of CD34+ cells / effects of combination with VPA on CD34+ expansion, CD34+ cell number / effects of combination with VPA on CD34+ expansion, percent of CD34+ cells / number of CD34+ cells / percent of CD34+ cells: after 6 days of culture; for effects of combination with TSA on CD34+ expansion, CD34+ cell number: FIGS. 7 and 9; for effects of combination with TSA on CD34+ expansion, percent of CD34+ cells: FIGS. 8 and 10; for effects of combination with VPA on CD34+ expansion, CD34+ cell number: FIGS. 11 and 13; for effects of combination with VPA on CD34+ expansion, percent of CD34+ cells: FIGS. 12 and 14; for number of CD34+ cells / percent of CD34+ cells: compound alone, in a dose dependent manner; for kind of combination effect with VPA on CD34+ expansion (number and percent): tables in FIGS. 11-14
Procedure: as §1, §2

[4] = tested on: Namalwa cells (human Burkitt Lymphoma); test: Namalwa cell proliferation (cell count by flow cytometry; BrDu incorporation); assay type: cell-based; conditions: 3 days; for effect of combination with VPA on cell proliferation arrest: FIGS. 3 and 5
Procedure: as §1, §2
Namalwa cells were plated at 10,000 cells per well in 96 well plates and treated with TSA and Comp. 1 at the concentration indicated for 3 days. The effects of TSA and Comp. 1 on cell proliferation were measured using BrDu incorporation kit (Roche, Germany).

[5] = tested on: CD34+ hematopoietic stem cells from a healthy donor; test: Fetal hemoglobin expression in CD34+ cells from a healthy donor differentiated towards erythrocytes; assay type: cell-based; conditions: for percentage of HbF expressing cells: compound alone, healthy donor, after 6 days of culture, in a dose dependent manner; for effect of combination with HU on HbF expression: healthy (normal) donor, HU at 10 μM added to the growth cocktail, 6 days, FIG. 15
Procedure: as §1
(§3) After 6 days of culture, cells were washed with phosphate-buffered saline (PBS), fixed with 2% paraformaldehyde, permeabilized with cytopermeafix (BD-pharmingen), stained with HbF-PE (BD Pharmingen, San Diego, Calif.) and analyzed by flow cytometry (FACSAria, BD pharmingen).

[6] = tested on: CD34+ cells from sickle cell anemic patient (SCA); test: Fetal hemoglobin expression in CD34+ cells from sickle cell anemic patient differentiated towards erythrocytes; assay type: cell-based
Procedure: Namalwa CSN.70 cells were purchased from DSMZ (Brauschweig, Germany). Bone marrow and cord blood CD34^+ cells were purchased Cambrex (Walkersville, Md.) and AllCells (Emeryville, Calif.), respectively. Bone marrow CD34+ cells from Sickle Cell Anemic (SCA) patient were provided by Christopher Morris (Loma Linda University Medical Center, CA).
Namalwa were cultured in RPMI-1640 media (Invitrogen, Carlsbad) supplemented with 10% fetal bovine serum, penicillin (100 u/ml) and streptomycin (100 μg/ml). CD34^+ cells were expanded in serum free conditions in Iscove's DMEM (Invitrogen, Carlsbad, Calif.) supplemented with 20% serum substitute BIT (StemCell Techologies, Vancouver, BC) in the presence of SCF (100 ng/ml), Flt3-L (100 ng/ml) and IL-3 (20 ng/ml) (Biosource International, Camarillo, Calif.). Namalwa cells and CD34+ cells were cultured for 3 and 6 days, respectively. DMSO 0.1%, Comp. 1 or Comp. 2, valproic acid (VPA) or trichostatin A (TSA) at the concentration indicated were added during the 3 or 6 days of culture. […]
as §3

SMILES: Nc1cccc2c1CN(C1CCC(=O)NC1=O)C2=O (stereo not drawn) [Form A, 3-(4-amino-1-oxo-1,3 dihydro-isoindol-2-yl)-piperidene-2,6-dione]
- relative stability among polymorphs [1]: most thermodynamically stable anhydrous polymorph
- hygroscopicity [1]: weakly or not hygroscopic

SMILES: Nc1cccc2c1CN(C1CCC(=O)NC1=O)C2=O (stereo not drawn) [Form E, 3-(4-amino-1-oxo-1,3 dihydro-isoindol-2-yl)-piperidene-2,6-dione]
- relative stability among polymorphs [1]: most stable form
- conversion upon heating (desolvation experiments) [1]: can convert to Form B
- interconversion in solvent systems or at higher relative humidity [1]: can convert to Form C in an acetone solvent system and to Form G in a THF solvent system

SMILES: Nc1cccc2c1CN(C1CCC(=O)NC1=O)C2=O (stereo not drawn) [Compound 2, 3-(4-amino-1-oxo-1,3-dihydro-isoindol-2-yl)-piperidine-2,6-dione]
- effect of combination with VPA on inducing apoptosis [2]: synergistic and additive; also recorded: additive and synergistic
- effect of the addition of TSA on the compound's effect on CD34+ expansion ([3]; TSA at 1 and 10 nM added to the growth cocktail, 6 days): significantly improved
- effect of the addition of VPA on the compound's effect on CD34+ expansion ([3]; VPA at 0.1 and 0.3 mM added to the growth cocktail, 6 days): significantly improved
- effects of combination with TSA on CD34+ expansion, CD34+ cell number [3]: additive and synergistic
- effects of combination with TSA on CD34+ expansion, percent of CD34+ cells [3]: additive and synergistic
- effects of combination with VPA on CD34+ expansion, CD34+ cell number [3]: additive and synergistic
- effects of combination with VPA on CD34+ expansion, percent of CD34+ cells [3]: additive and synergistic
- number of CD34+ cells [3]: increased
- percent of CD34+ cells [3]: increased
- kind of combination effect with VPA on CD34+ expansion (number and percent) ([3]; 6 days): additive to Compound 2, and in some conditions, a synergistic effect was observed
- effect of combination with VPA on cell proliferation arrest [4]: synergistic and additive; also recorded: additive and synergistic
- percentage of HbF expressing cells [5]: increased
- effect of combination with HU on HbF expression [5]: significantly improved the effect of Compound 1 and Compound 2 on HbF expression in a synergistic manner

SMILES: Nc1cccc2c1CN(C1CCC(=O)NC1=O)C2=O (stereo not drawn) [Form B, 3-(4-amino-1-oxo-1,3 dihydro-isoindol-2-yl)-piperidene-2,6-dione]
- conversion upon heating (desolvation experiments) [1]: can convert to Form F
- interconversion in solvent systems or at higher relative humidity [1]: converts to Form E in aqueous solvent systems, and converts to other forms in acetone and other anhydrous systems

SMILES: Nc1cccc2c1CN(C1CCC(=O)NC1=O)C2=O (stereo not drawn) [Form C, 3-(4-amino-1-oxo-1,3 dihydro-isoindol-2-yl)-piperidene-2,6-dione]
- interconversion in solvent systems or at higher relative humidity [1]: can convert to Form B at higher relative humidities
- hygroscopicity [1]: not hygroscopic below about 85% RH

SMILES: Nc1cccc2c1CN(C1CCC(=O)NC1=O)C2=O (stereo not drawn) [Form D, 3-(4-amino-1-oxo-1,3 dihydro-isoindol-2-yl)-piperidene-2,6-dione]
- interconversion in solvent systems or at higher relative humidity [1]: convert to Form B when stressed at higher relative humidities
- hygroscopicity [1]: either weakly or not hygroscopic

SMILES: Nc1cccc2c1C(=O)N(C1CCC(=O)NC1=O)C2=O (stereo not drawn) [Compound 1, 4-(amino)-2-(2,6-dioxo(3-piperidyl))-isoindoline-1,3-dione]
- effect of combination with VPA on inducing apoptosis [2]: synergistic and additive; also recorded: additive and synergistic
- effect of combination with TSA on inducing apoptosis ([2]; TSA at 10 nM, FIG. 2): synergistic and additive
- effect of the addition of TSA on the compound's effect on CD34+ expansion ([3]; TSA at 10 nM added to the growth cocktail, 6 days): significantly improved
- effect of the addition of VPA on the compound's effect on CD34+ expansion ([3]; VPA at 0.1, 0.3 and 1 mM added to the growth cocktail, 6 days): significantly improved
- effects of combination with TSA on CD34+ expansion, CD34+ cell number [3]: additive and synergistic
- effects of combination with TSA on CD34+ expansion, percent of CD34+ cells [3]: additive and synergistic
- effects of combination with VPA on CD34+ expansion, CD34+ cell number [3]: additive and synergistic
- effects of combination with VPA on CD34+ expansion, percent of CD34+ cells [3]: additive and synergistic
- number of CD34+ cells [3]: increased
- percent of CD34+ cells [3]: increased
- kind of combination effect on CD34+ expansion (number and percent), partner printed as VPA ([3]; tables in FIGS. 7-10, which belong to the TSA experiments, 6 days): additive to Compound 1, and in some conditions, a synergistic effect was observed
- kind of combination effect with VPA on CD34+ expansion (number and percent) ([3]; 6 days): additive to Compound 1, and in some conditions, a synergistic effect was observed
- effect of combination with HU on HbF expression ([6]; HU at 10 μM added to the growth cocktail, 6 days, FIG. 16): significantly improved the effect of Compound 1 on HbF expression in a synergistic manner
- percentage of HbF expressing cells ([6]; compound alone, after 6 days of culture, in a dose dependent manner): increased
- effect of combination with VPA on cell proliferation arrest [4]: synergistic and additive; also recorded: additive and synergistic
- effect of combination with TSA on cell proliferation arrest ([4]; TSA at 10 nM, FIG. 1): synergistic and additive
- percentage of HbF expressing cells [5]: increased
- effect of combination with HU on HbF expression [5]: significantly improved the effect of Compound 1 and Compound 2 on HbF expression in a synergistic manner
